Measurements reported in publication PMC8872362, “Balanced Polymorphism at the Pgm-1 Locus of the Pompeii Worm Alvinella pompejana and Its Variant Adaptability Is Only Governed by Two QE Mutations at Linked Sites” (Genes, 2022).
Like-named read-outs stand apart in the source and are kept apart here.

Test system: PGM-1 (recombinant isoform PGM100, E155 E190)
Assay: G6PD-coupled NADPH assay, Lineweaver-Burk
Format: biochemical, Alvinella pompejana
Conditions: 50 mM Tris-HCl pH 7.4, 0.5 M MgCl2 (so in the source), 1.2 mM NADP, 0.1 µM G6PD, G1P 0.2-60 mM, 17 °C
Description: G6PD-coupled NADPH assay, Lineweaver-Burk on PGM-1 (recombinant isoform PGM100, E155 E190)

With `O=P(O)(O)O[C@H]1O[C@H](CO)[C@@H](O)[C@H](O)[C@H]1O` [G1P, α-D-glucose 1-phosphate] the Km (PGM78, natural allele QE, read-out: PGM 78 / 1st Transition) was 0.76 ± 0.07 mM, the Km (PGM90, natural allele EQ, read-out: PGM 90 / 1st Transition) was 6.25 ± 0.35 mM and the Km (read-out: PGM 100 / 1st Transition) was 5.22 ± 0.74 mM.
